Laboratory results taken from patent publication US12630534B2 (TAKEDA PHARMACEUTICAL COMPANY LIMITED, priority 2020, dated 2026).

Target: T1, human GPR139 (Homo sapiens, UniProt Q6DWJ6)
T1 construct: expressed in transfected cells; host or cells: CHO-TREx (Life Technologies) cells, expression induced with doxycycline
T1 sequence (Q6DWJ6 1-353): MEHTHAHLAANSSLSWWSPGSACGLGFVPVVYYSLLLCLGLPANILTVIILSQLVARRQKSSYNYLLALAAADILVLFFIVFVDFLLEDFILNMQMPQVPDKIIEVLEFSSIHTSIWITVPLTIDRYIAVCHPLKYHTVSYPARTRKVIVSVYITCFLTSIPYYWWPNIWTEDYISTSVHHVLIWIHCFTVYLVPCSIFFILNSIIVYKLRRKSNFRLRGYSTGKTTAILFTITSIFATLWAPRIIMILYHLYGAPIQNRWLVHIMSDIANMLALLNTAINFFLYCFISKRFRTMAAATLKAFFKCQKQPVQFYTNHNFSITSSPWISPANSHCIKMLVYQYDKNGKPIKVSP
Assay: Inhibition rate of the amount of IP1 in GPR139-expressed CHO cells (inverse agonist assay, Test Example 2)
Type: cell-based
Settings: CHO, relative value, inhibition rate of Example Compound 2 in Test Example 1 defined as 100%
Experimental: The measurement of IP1 was made using an IP-ONE HTFR assay kit (cis-bio) and CHO-TREx (Life Technologies) cells stably transfected with GPR139. The CHO-TREx cells expressed human GPR139 with a tetracycline-inducing element. The cells were cultured in a medium containing F12K and 10% tetracycline-free FBS, and the expression of human GPR139 was induced over the course of 17 hours under conditions of 37° C. and 5% CO2 in the presence of 2 μg/mL of doxycycline (Clontech, 631311) in the growth medium on the day before assay. On the day of the test, after the cells were washed with 10 mL of PBS, the cells were detached with TrypLE Express (Life Technologies) and centrifuged at 1,000 rpm to form pellets, and a cell suspension was then prepared using a stimulation buffer (cis-bio, included in the IP-ONE HTRF assay kit).
The compound was diluted with the stimulation buffer, and 4 μL was added to a 384-well white assay plate (Greiner). The cell suspension was added so that there were 2000 cells per well, and the assay plate was left to stand for 40 minutes at 37° C. Equal amounts of IP1-d2 and Ab-Crp solutions (both available from cis-bio, included in the IP-ONE HTRF assay kit) prepared with a lysis buffer (cis-bio, included in the IP-ONE HTRF assay kit) were mixed, and 4 μL was added to the assay plate and left to stand for one hour at room temperature. After the fluorescence strengths of two wavelengths were measured by the HTRF settings of Envision (PerkinElmer), the value of Ratio={(Signal 665 nm)/(Signal 615 nm)}×10000 was calculated.
Measurement of the Inhibition Rate of the Amount of IP1 in GPR139-Expressed CHO Cells (Inverse Agonist Assay)
The activities of the compounds of Examples 1 and 3 to 167 were expressed as relative values in Table 2 by measuring the inhibition rate of the amount of IP1 with the same method as in Test Example 1 and defining the inhibition rate of the amount of IP1 of Example Compound 2 in Test Example 1 as […].

| Structure (SMILES) | inhibition at 30 µM [%] |
| --- | --- |
| CCn1cc(Cn2ccn(-c3cc(-c4ccc(F)cc4)cc(C(F)(F)F)c3)c2=O)cn1 [Example 1, 1-[(1-Ethyl-1H-pyrazole-4-yl)methyl]-3-[4′-fluoro-5-(trifluoromethyl)[1,1′-biphenyl]-3-yl]-1,3-dihydro-2H-imidazole-2-one] | 99 |
| CCn1cc(Cn2cc(C)n(-c3cc(-c4ccc(F)cc4)cc(C(F)(F)F)c3)c2=O)cn1 [Example 3, 1-[(1-ethyl-1H-pyrazol-4-yl)methyl]-3-[4′-fluoro-5-(trifluoromethyl)[1,1′-biphenyl]-3-yl]-4-methyl-1,3-dihydro-2H-imidazol-2-one] | 101 |
| CCn1cc(Cn2cc(C)n(-c3cc(N4CCO[C@H](C)C4)cc(C(F)(F)F)c3F)c2=O)cn1 [Example 4, 1-[(1-ethyl-1H-pyrazol-4-yl)methyl]-3-{2-fluoro-5-[(2R)-2-methylmorpholin-4-yl]-3-(trifluoromethyl)phenyl}-4-methyl-1,3-dihydro-2H-imidazol-2-one] | 102 |
| CCn1cc(Cn2cc(C)n(-c3cc(Oc4ccc(F)cc4)cc(C(F)(F)F)c3)c2=O)cn1 [Example 5, 1-[(1-ethyl-1H-pyrazol-4-yl)methyl]-3-[3-(4-fluorophenoxy)-5-(trifluoromethyl)phenyl]-4-methyl-1,3-dihydro-2H-imidazol-2-one] | 99 |
| CCn1cc(Cn2cc(C)n(-c3cc(OC4CCOCC4)cc(C(F)(F)F)c3)c2=O)cn1 [Example 6, 1-[(1-ethyl-1H-pyrazol-4-yl)methyl]-4-methyl-3-{3-[(oxan-4-yl)oxy]-5-(trifluoromethyl)phenyl}-1,3-dihydro-2H-imidazol-2-one] | 102 |
| CCn1cc(Cn2cc(C)n(-c3cc(OCC4CC(F)(F)C4)cc(C(F)(F)F)c3)c2=O)cn1 [Example 7, 3-{3-[(3,3-difluorocyclobutyl)methoxy]-5-(trifluoromethyl)phenyl}-1-[(1-ethyl-1H-pyrazol-4-yl)methyl]-4-methyl-1,3-dihydro-2H-imidazol-2-one] | 102 |
| CCn1cc(Cn2ccn(-c3cc(N4CCO[C@H](C)C4)cc(C(F)(F)F)c3C)c2=O)cn1 [Example 8, 1-[(1-ethyl-1H-pyrazol-4-yl)methyl]-3-{2-methyl-5-[(2R)-2-methylmorpholin-4-yl]-3-(trifluoromethyl)phenyl}-1,3-dihydro-2H-imidazol-2-one] | 101 |
| CCn1cc(C(C)n2ccn(-c3cc(N4CCO[C@H](C)C4)cc(C(F)(F)F)c3F)c2=O)cn1 (stereo partly drawn) [Example 9, 1-[1-(1-ethyl-1H-pyrazol-4-yl)ethyl]-3-{2-fluoro-5-[(2R)-2-methylmorpholin-4-yl]-3-(trifluoromethyl)phenyl}-1,3-dihydro-2H-imidazol-2-one] | 102 |
| CCn1cc(Cn2ccn(-c3cc(N(C)C4CCOCC4)cc(C(F)(F)F)c3F)c2=O)cn1 [Example 10, 1-[(1-ethyl-1H-pyrazol-4-yl)methyl]-3-{2-fluoro-5-[methyl(oxan-4-yl)amino]-3-(trifluoromethyl)phenyl}-1,3-dihydro-2H-imidazol-2-one] | 100 |
| CCn1cc(Cn2ccn(-c3cc(N4CCO[C@@H](C)C4)cc(C(F)(F)F)c3F)c2=O)cn1 [Example 11, 1-[(1-ethyl-1H-pyrazol-4-yl)methyl]-3-{2-fluoro-5-[(2S)-2-methylmorpholin-4-yl]-3-(trifluoromethyl)phenyl}-1,3-dihydro-2H-imidazol-2-one] | 98 |
| CCn1cc(Cn2ccn(-c3cc(N4CCOC(C)(C)C4)cc(C(F)(F)F)c3F)c2=O)cn1 [Example 12, 1-[5-(2,2-dimethylmorpholin-4-yl)-2-fluoro-3-(trifluoromethyl)phenyl]-3-[(1-ethyl-1H-pyrazol-4-yl)methyl]-1,3-dihydro-2H-imidazol-2-one] | 98 |
| CCn1ncc(Cn2ccn(-c3cc(N4CCO[C@H](C)C4)cc(C(F)(F)F)c3F)c2=O)c1C [Example 13, 1-[(1-ethyl-5-methyl-1H-pyrazol-4-yl)methyl]-3-{2-fluoro-5-[(2R)-2-methylmorpholin-4-yl]-3-(trifluoromethyl)phenyl}-1,3-dihydro-2H-imidazol-2-one] | 101 |
| CCn1cc(Cn2cc(C)n(-c3cc(N4CCO[C@H](C)C4)cc(C(F)(F)F)c3)c2=O)cn1 [Example 14, 1-[(1-ethyl-1H-pyrazol-4-yl)methyl]-4-methyl-3-{3-[(2R)-2-methylmorpholin-4-yl]-5-(trifluoromethyl)phenyl}-1,3-dihydro-2H-imidazol-2-one] | 99 |
| CCn1cc(Cn2ccn(-c3cc(N4CCO[C@H](C)C4)cc(C(F)(F)F)c3Cl)c2=O)cn1 [Example 15, 1-{2-chloro-5-[(2R)-2-methylmorpholin-4-yl]-3-(trifluoromethyl)phenyl}-3-[(1-ethyl-1H-pyrazol-4-yl)methyl]-1,3-dihydro-2H-imidazol-2-one] | 101 |
| CCn1cc(Cn2c(C)c(C)n(-c3cc(N4CCO[C@H](C)C4)cc(C(F)(F)F)c3)c2=O)cn1 [Example 16, 1-[(1-ethyl-1H-pyrazol-4-yl)methyl]-4,5-dimethyl-3-(3-[(2R)-2-methylmorpholin-4-yl]-5-(trifluoromethyl)phenyl}-1,3-dihydro-2H-imidazol-2-one] | 100 |
| CCn1cc(Cn2cc(C)n(-c3cc(OCC4CC4)cc(C(F)(F)F)c3)c2=O)cn1 [Example 17, 3-[3-(cyclopropylmethoxy)-5-(trifluoromethyl)phenyl]-1-[(1-ethyl-1H-pyrazol-4-yl)methyl]-4-methyl-1,3-dihydro-2H-imidazol-2-one] | 99 |
| CCn1cc(Cn2cc(C)n(-c3cc(C(F)(F)F)cc(N4CCO[C@H](C)C4)n3)c2=O)cn1 [Example 18, 1-[(1-Ethyl-1H-pyrazole-4-yl)methyl]-4-methyl-3-{6-[(2R)-2-methylmorpholine-4-yl]-4-(trifluoromethyl)pyridine-2-yl}-1,3-dihydro-2H-imidazole-2-one] | 101 |
| CCn1cc(Cn2cc(C)n(-c3cc(N4CCC(F)(F)CC4)cc(C(F)(F)F)c3)c2=O)cn1 [Example 19, 3-[3-(4,4-difluoropiperidin-1-yl)-5-(trifluoromethyl)phenyl]-1-[(1-ethyl-1H-pyrazol-4-yl)methyl]-4-methyl-1,3-dihydro-2H-imidazol-2-one] | 100 |
| CCn1cc(Cn2cc(C)n(-c3cc(N4CCOC(C(F)F)C4)cc(C(F)(F)F)c3)c2=O)cn1 (centres unmarked) [Example 20, 3-{3-[2-(difluoromethyl)morpholin-4-yl]-5-(trifluoromethyl)phenyl}-1-[(1-ethyl-1H-pyrazol-4-yl)methyl]-4-methyl-1,3-dihydro-2H-imidazol-2-one] | 99 |
| CCn1cc(Cn2cc(C)n(-c3cc(-n4cnc(C)c4)cc(C(F)(F)F)c3)c2=O)cn1 [Example 21, 1-[(1-ethyl-1H-pyrazol-4-yl)methyl]-4-methyl-3-[3-(4-methyl-1H-imidazol-1-yl)-5-(trifluoromethyl)phenyl]-1,3-dihydro-2H-imidazol-2-one] | 99 |
| CCn1cc(Cn2cc(C)n(-c3cc(OCC4CC4(F)F)cc(C(F)(F)F)c3)c2=O)cn1 (centres unmarked) [Example 22, 3-{3-[(2,2-difluorocyclopropyl)methoxy]-5-(trifluoromethyl)phenyl}-1-[(1-ethyl-1H-pyrazol-4-yl)methyl]-4-methyl-1,3-dihydro-2H-imidazol-2-one] | 100 |
| CCn1cc(Cn2cc(C)n(-c3cc(N4C[C@@H](C)O[C@@H](C)C4)cc(C(F)(F)F)c3)c2=O)cn1 [Example 23, 3-{3-[(2R,6S)-2,6-dimethylmorpholin-4-yl]-5-(trifluoromethyl)phenyl}-1-[(1-ethyl-1H-pyrazol-4-yl)methyl]-4-methyl-1,3-dihydro-2H-imidazol-2-one] | 100 |
| CCn1cc(Cn2cc(C)n(-c3cc(N4CCC(F)(F)C4)cc(C(F)(F)F)c3)c2=O)cn1 [Example 24, 3-[3-(3,3-difluoropyrrolidin-1-yl)-5-(trifluoromethyl)phenyl]-1-[(1-ethyl-1H-pyrazol-4-yl)methyl]-4-methyl-1,3-dihydro-2H-imidazol-2-one] | 100 |
